Source: ChEMBL document CHEMBL5661943, “ASAP - In vitro antiviral effect” (2024)

Key:
[1] = tested on: Zika virus; assay: Functional CPE-based assay to measure dose dependent changes in antiviral-drug inhibitory efficacy against Zika virus MR766 in Vero E6 miRFP670 cells. Cells are treated with antiviral candidates that are serially diluted. EC50 is reported via analysis of MTS assay as a readout of CPE. The assay has been performed by KU Leuven.; type: organism-based, Chlorocebus sabaeus, Vero C1008; conditions: Zika virus
[2] = tested on: dengue virus type 2; assay: Functional assay to measure dose dependent changes in antiviral-drug inhibitory efficacy against Dengue virus type 2 New Guinea C in Vero E6 miRFP670 cells (cotreated with P-gp inhibitor, CP100356). Cells are treated with antiviral candidates that are serially diluted, following infection, cells are fixed. EC50 is reported via analysis of fluorescence intensity using high-content imager. The …; type: organism-based, Chlorocebus sabaeus, Vero C1008; conditions: Dengue virus

C=CC[C@H](Nc1ccc(-c2nn[nH]n2)cc1)c1cc(Cl)cc(NC(=O)OCc2ccccc2)c1
EC50 ([1]; Vero C1008): 13.7 µM | EC90 ([1]; Vero C1008, Baseline response 0 %, EC90 CI (lower) 0 uM, EC90 CI (upper) -3.27181e+18 uM, Hill slope 17.95, Maximum measured 103.91 %, Maximum response 100 %, Minimum measured 1.446 %, R squared 0.986): 15.5 µM | EC50 ([2]; Vero C1008): 1.84 µM | EC90 ([2]; Vero C1008, Baseline response 0 %, EC90 CI (lower) 0.301 uM, EC90 CI (upper) 0.468 uM, Hill slope -1.382, Maximum measured 87.879 %, Maximum response 100 %, Minimum measured 3.84 %, P-gp concentration 500 nM, R squared 0.99, P-gp inhibitor CP100356): 9.02 µM

CCCNC(=O)[C@H](Nc1cccc(-c2nn[nH]n2)c1)c1cc(Cl)cc(NC(=O)OCc2ccccc2)c1
EC50 ([1]; Vero C1008): > 50 µM | EC90 ([1]; Vero C1008, Baseline response 0 %, Hill slope 3.408, Maximum measured 22.38 %, Maximum response 100 %, Minimum measured 1.712 %, R squared 0.919): > 50 µM | EC50 ([2]; Vero C1008): > 50 µM | EC90 ([2]; Vero C1008, Baseline response 0 %, Hill slope 1.238, Maximum measured 113.655 %, Maximum response 100 %, Minimum measured 85.317 %, P-gp concentration 500 nM, R squared 0.426, P-gp inhibitor CP100356): > 50 µM

O=C(Nc1ccc(C2CNC2)cc1)c1cc(Cl)cc2[nH]ncc12
EC50 ([1]; Vero C1008): > 50 µM | EC90 ([1]; Vero C1008, Maximum measured 1.247 %, Minimum measured -2.682 %): > 50 µM | EC50 ([2]; Vero C1008): 8.78 µM | EC90 ([2]; Vero C1008, Baseline response 0 %, EC90 CI (lower) 1.814 uM, EC90 CI (upper) 3.53 uM, Hill slope -1.767, Maximum measured 103.682 %, Maximum response 100 %, Minimum measured 12.273 %, P-gp concentration 500 nM, R squared 0.972, P-gp inhibitor CP100356): 30.4 µM

Cn1ncc2c(C(=O)Nc3ccc4c(c3)CNC4)cc(Br)cc21
EC50 ([1]; Vero C1008): > 50 µM | EC90 ([1]; Vero C1008, Baseline response 0 %, Hill slope 2.334, Maximum measured 28.881 %, Maximum response 100 %, Minimum measured -5.706 %, R squared 0.821): > 50 µM | EC50 ([2]; Vero C1008): < 0.391 µM | EC90 ([2]; Vero C1008, Baseline response 0 %, Hill slope 1.42, Maximum measured 130.593 %, Maximum response 100 %, Minimum measured 71.5 %, P-gp concentration 500 nM, R squared 0.202, P-gp inhibitor CP100356): < 0.391 µM

NCc1cc(/C=C/C(=O)O)cc(NC(=O)c2cc(Cl)cc(NC(=O)OCc3ccccc3)c2)c1
EC50 ([1]; Vero C1008): > 50 µM | EC90 ([1]; Vero C1008, Baseline response 0 %, Hill slope -0.386, Maximum measured 1.272 %, Maximum response 100 %, Minimum measured -0.891 %, R squared 0.02): > 50 µM | EC50 ([2]; Vero C1008): > 50 µM | EC90 ([2]; Vero C1008, Maximum measured 167.512 %, Minimum measured 81.46 %, P-gp concentration 500 nM, P-gp inhibitor CP100356): > 50 µM

C=CC[C@H](Nc1cc(Cl)cc(NC(=O)OCc2ccccc2)c1)c1ccc(-c2nn[nH]n2)cc1
EC50 ([1]; Vero C1008): 2.26 µM | EC90 ([1]; Vero C1008, Baseline response 0 %, EC90 CI (lower) 3.03 uM, EC90 CI (upper) 8.689 uM, Hill slope 2.685, Maximum measured 114.091 %, Maximum response 100 %, Minimum measured 6.468 %, R squared 0.926): 5.13 µM | EC50 ([2]; Vero C1008): < 0.391 µM | EC90 ([2]; Vero C1008): 0.683 µM

NCc1cccc(NC(=O)c2cc(Cl)cc3c2cnn3CC2CC2)c1
EC50 ([1]; Vero C1008): > 50 µM | EC90 ([1]; Vero C1008, Baseline response 0 %, Hill slope 0.179, Maximum measured 64.548 %, Maximum response 100 %, Minimum measured -3.549 %, R squared 0.025): > 50 µM | EC50 ([2]; Vero C1008): 12.4 µM | EC90 ([2]; Vero C1008): > 12.5 µM

CC(C)Oc1ccc(S(=O)(=O)Nc2ccc(Cl)cc2C(=O)O)cc1
EC50 ([1]; Vero C1008): > 50 µM | EC90 ([1]; Vero C1008, Baseline response 0 %, Hill slope 0.349, Maximum measured 6.596 %, Maximum response 100 %, Minimum measured -0.897 %, R squared 0.277): > 50 µM | EC50 ([2]; Vero C1008): 11.1 µM | EC90 ([2]; Vero C1008, Baseline response 0 %, Hill slope -49.91, Maximum measured 106.831 %, Maximum response 100 %, Minimum measured 0.108 %, P-gp concentration 500 nM, R squared 0.989, P-gp inhibitor CP100356): 11.6 µM

O=C(Nc1cccc(-c2nnn[nH]2)c1)c1cc(Cl)cc2[nH]ncc12
EC50 ([1]; Vero C1008): > 50 µM | EC90 ([1]; Vero C1008, Maximum measured 0.889 %, Minimum measured -1.258 %): > 50 µM | EC50 ([2]; Vero C1008): > 50 µM | EC90 ([2]; Vero C1008, Maximum measured 107.824 %, Minimum measured 101.456 %, P-gp concentration 500 nM, P-gp inhibitor CP100356): > 50 µM

O=C(Nc1cc(Cl)cc(C(=O)Nc2cccc([C@H]3C[C@H]3C(=O)O)c2)c1)OCc1ccccc1
EC50 ([1]; Vero C1008): > 50 µM | EC90 ([1]; Vero C1008, Baseline response 0 %, Hill slope 7.946, Maximum measured 10.264 %, Maximum response 100 %, Minimum measured -1.789 %, R squared 0.722): > 50 µM | EC50 ([2]; Vero C1008): > 50 µM | EC90 ([2]; Vero C1008, Maximum measured 111.056 %, Minimum measured 105.114 %, P-gp concentration 500 nM, P-gp inhibitor CP100356): > 50 µM

O=C(Nc1cc(Cl)cc(-c2ccc3[nH]nc(C(=O)O)c3c2)c1)OCc1ccccc1
EC50 ([1]; Vero C1008): > 50 µM | EC90 ([1]; Vero C1008, Baseline response 0 %, Hill slope 0.266, Maximum measured 1.773 %, Maximum response 100 %, Minimum measured -0.573 %, R squared 0.018): > 50 µM | EC50 ([2]; Vero C1008): > 50 µM | EC90 ([2]; Vero C1008, Maximum measured 168.4 %, Minimum measured 111.066 %, P-gp concentration 500 nM, P-gp inhibitor CP100356): > 50 µM

O=C(NCC1CC1)c1cc(Cl)ccc1NS(=O)(=O)c1ccc(Oc2ccccc2Cl)cc1
EC50 ([1]; Vero C1008): > 50 µM | EC90 ([1]; Vero C1008, Maximum measured -0.067 %, Minimum measured -1.21 %): > 50 µM | EC50 ([2]; Vero C1008): 6.05 µM | EC90 ([2]; Vero C1008, Baseline response 0 %, Hill slope -26.927, Maximum measured 110.675 %, Maximum response 100 %, Minimum measured 0.394 %, P-gp concentration 500 nM, R squared 0.827, P-gp inhibitor CP100356): 6.57 µM
